Patent US9572812B2, “Compositions and methods involving polymer, solvent, and high viscosity liquid carrier material” (DURECT CORPORATION, priority 2013, dated 2017)

Columns and labels:
[1] = Risperidone solubility in vehicle / solvent; format: physicochemical; details: NMP versus PC
[2] = Density and viscosity of placebo vehicle and formulation; format: physicochemical
From the text: Formulation No. R66 consisted of SAIB/NMP/PLGA/RSP in the following weight proportion: 45.5/27.3/18.2/9.0. Formulation No. R131 consisted of SAIB/PC/PLGA/RSP in the following weight proportions 40.0/33.7/17.3/9.0. It should be noted that Formulation Nos. […] and […] were formulated to yield approximately the same viscosity (see below Table). However, to achieve similar viscosities, more PC must be added to the vehicle, with a corresponding decrease in SAIB (and a minor decrease in PLGA). [table] The difference in the above-noted settling versus the difference in vehicle density is notable. As shown in the first Table of this Example, the viscosity of the placebo vehicle for Formulation No. R66 at 5° C. is slightly higher than the viscosity of the placebo vehicle for Formulation No. R131 at 5° C. […] R131

With Cc1nc2n(c(=O)c1CCN1CCC(c3noc4cc(F)ccc34)CC1)CCCC2 [risperidone] the “risperidone solubility in solvents” value [1] was “higher solubility in NMP than in PC” and the density of risperidone [2] was 1.30 g/mL.
